This is an account of results in patent publication US12312370B2, “Immunoproteasome inhibitors” (Principia Biopharma Inc., priority 2017, dated 2025).

The target in assay [1] is immunoproteasome LMP7/B5i subunit (Homo sapiens, UniProt P28062). As to the kind of experiment: Caliper-based proteasome enzymatic activity assay, LMP7. Format: biochemical. To be noted: human recombinant immunoproteasome 0.3 nM, FAM-labeled peptide substrate 1 μM, rt 3 h; read-out: LMP7 subunit IC50.
The target in assay [2] is constitutive proteasome β5c unit (Homo sapiens, UniProt P28074). As to the kind of experiment: Caliper-based proteasome enzymatic activity assay, β5c. As to conditions: human recombinant constitutive proteasome 0.3 nM, FAM-labeled peptide substrate 1 μM, rt 3 h; read-out: β5c subunit IC50. It is filed as biochemical.

With `CC(C)C=C(C#N)C(=O)NCCCC[C@H](NS(C)(=O)=O)C(=O)N[C@@H](Cc1ccccc1)B(O)O` [Example 12, ((R)-1-((S)-6-(2-cyano-4-methylpent-2-enamido)-2-(methylsulfonamido)hexanamido)-2-phenylethyl)boronic acid], the IC50 in assay [1] is 13.4 nM; in assay [2], 21.1 nM.

On to `CC(C)(C=C(C#N)C(=O)N1CCC[C@H](OC(=O)N[C@@H](Cc2ccccc2)B(O)O)C1)N1CCN2C(=O)OC[C@H]2C1` [Example 98, ((R)-1-(((((S)-1-(2-cyano-4-methyl-4-((R)-3-oxotetrahydro-3H-oxazolo[3,4-a]pyrazin-2(1H)-yl)pent-2-enoyl)piperidin-3-yl)oxy)carbonyl)amino)-2-phenylethyl)boronic acid], for which the 50% inhibitory concentration (IC50) in assay [1] was determined as 5.6 nM; in assay [2], 2500 nM.

Turning to `CC(C)(C=C(C#N)C(=O)N1C[C@@H](F)[C@H](OC(=O)N[C@@H](Cc2ccccc2)B(O)O)C1)N1CCC(F)(F)C1` [Example 113, ((R)-1-(((((3R,4R)-1-(2-cyano-4-(3,3-difluoropyrrolidin-1-yl)-4-methylpent-2-enoyl)-4-fluoropyrrolidin-3-yl)oxy)carbonyl)amino)-2-phenylethyl)boronic acid], the IC50 was determined as 2.3 nM in assay [1] and 520 nM in assay [2].

`CC(C)(C=C(C#N)C(=O)N1CCCC[C@@H](OC(=O)N[C@@H](Cc2ccccc2)B(O)O)C1)N1CCOC2(CC2)C1` [Example 133, ((R)-1-(((((R)-1-(2-cyano-4-methyl-4-(4-oxa-7-azaspiro[2.5]octan-7-yl)pent-2-enoyl)azepan-3-yl)oxy)carbonyl)amino)-2-phenylethyl)boronic acid]: the results for the IC50 in assay [1] and in assay [2] were 1.4 nM and 942 nM, respectively.

Take `CC(C)(C=C(C#N)C(=O)N1CC[C@H](NC(=O)N[C@@H](Cc2ccccc2)B(O)O)C1)N1CCC(F)(F)C1` [Example 100, ((R)-1-(3-((S)-1-(2-cyano-4-(3,3-difluoropyrrolidin-1-yl)-4-methylpent-2-enoyl)pyrrolidin-3-yl)ureido)-2-phenylethyl)boronic acid]: the IC50 in assay [1] is 206 nM; in assay [2], 3560 nM.

Turning to `C[C@@H]1CN(C(C)(C)C=C(C#N)C(=O)N2C3CCC2(COC(=O)N[C@@H](Cc2ccccc2)B(O)O)CC3)C[C@H](C)O1` [Example 114, ((R)-1-((((7-(2-cyano-4-((2S,6R)-2,6-dimethylmorpholino)-4-methylpent-2-enoyl)-7-azabicyclo[2.2.1]heptan-1-yl)methoxy)carbonyl)amino)-2-phenylethyl)boronic acid], the IC50 in assay [1] was 2.1 nM; in assay [2] it was 1670 nM.

For the compound `CC(C)C=C(C#N)C(=O)N1CCC[C@@H]1COC[C@H](NCC(F)(F)F)C(=O)N[C@@H](CC(C)C)B(O)O` [Example 28], the IC50 worked out at 46 nM in assay [1] and 294 nM in assay [2].

As to `CC(C)(C=C(C#N)C(=O)N1C2CCC1(COC(=O)N[C@@H](Cc1ccccc1)B(O)O)CC2)N1CCOC2(CC2)C1` [Example 116, (R)-(1-((((7-(2-cyano-4-methyl-4-(4-oxa-7-azaspiro[2.5]octan-7-yl)pent-2-enoyl)-7-azabicyclo[2.2.1]heptan-1-yl)methoxy)carbonyl)amino)-2-phenylethyl)boronic acid], the IC50 in assay [1] is 1.3 nM; in assay [2], 753 nM.

As to `C=CC(=O)N1CCC[C@H](OC(=O)N[C@@H](Cc2coc3ccccc23)B(O)O)C1` [Example 65, ((R)-1-(((((S)-1-acryloylpiperidin-3-yl)oxy)carbonyl)amino)-2-(benzofuran-3-yl)ethyl)boronic acid], the IC50 is 7.5 nM in assay [1] and 418 nM in assay [2].

On to `C=CC(=O)N1CCC[C@H](OC(=O)N[C@@H](Cc2ccccc2)B(O)O)C1` [Example 67, ((R)-1-(((((S)-1-acryloylpiperidin-3-yl)oxy)carbonyl)amino)-2-phenylethyl)boronic acid], for which the values for the IC50 in assay [1] and in assay [2] were 249 nM and > 5000 nM, respectively.
